Columns and labels:
FtsZ [1] = target: T1, FtsZ (Bacillus subtilis, UniProt P17865); test: fluorescence titration with purified FtsZ (poorer fit, R^[…] = […]); also GTPase inhibition and sedimentation; type: binding
T1 sequence (P17865 1-382): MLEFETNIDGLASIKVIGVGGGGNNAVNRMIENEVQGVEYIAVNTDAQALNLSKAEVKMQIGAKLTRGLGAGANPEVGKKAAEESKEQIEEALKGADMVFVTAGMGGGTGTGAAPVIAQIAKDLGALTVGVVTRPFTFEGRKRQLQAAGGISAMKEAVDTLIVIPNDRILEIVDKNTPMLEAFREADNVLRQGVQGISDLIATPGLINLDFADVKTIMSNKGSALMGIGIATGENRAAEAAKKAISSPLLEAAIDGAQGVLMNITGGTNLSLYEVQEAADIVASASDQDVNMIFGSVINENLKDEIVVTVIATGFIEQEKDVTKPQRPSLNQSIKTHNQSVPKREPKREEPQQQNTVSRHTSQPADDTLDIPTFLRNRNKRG

FtsZ [2] = target: T1, FtsZ; test: fluorescence titration (intrinsic alkyl gallate fluorescence) with purified FtsZ; also GTPase inhibition and sedimentation; type: binding
FtsZ [3] = target: T1, FtsZ; test: malachite green GTPase assay at […] with Triton X-100 (Kd could not be calculated); type: biochemical

| SMILES | Kd (FtsZ [2]) [nM] | further results |
| --- | --- | --- |
| CCCCCOC(=O)c1cc(O)c(O)c(O)c1 [compound 8, Pentyl gallate] |  | Kd (FtsZ [1]): ~3.1 µM |
| CCCCCCCOC(=O)c1cc(O)c(O)c(O)c1 [compound 10, Heptyl gallate] | 80 ± 30 |  |
| CCCCCCCCOC(=O)c1cc(O)c(O)c(O)c1 [compound 11, Octyl gallate] | 840 ± 220 |  |
| CCCCCCOC(=O)c1cc(O)c(O)c(O)c1 [compound 9, Hexyl gallate] |  | malachite green GTPase assay at 50 μg/mL with Triton X-100 (Kd could not be calc) (FtsZ [3]): All of the compounds showed similar levels of inhibition of the GTPase activity of FtsZ. |

Reference: PMC4413848, “Antibacterial activity of alkyl gallates is a combination of direct targeting of FtsZ and permeabilization of bacterial membranes” (Frontiers in Microbiology, 2015)
